According to US11471458B2, “Diacylglycerol acyl transferase 2 inhibitor” (Pfizer Inc., priority 2019, dated 2022):
≈ marks a conversion by molar mass, not a printed value. Where a name gives a salt, the structure may show the parent alone.

What was measured:
[1] = Thermodynamic solubility in various biorelevant media; assay type: physicochemical; conditions: PBS, pH 6.8; crystalline solid
Procedure: The solubility of active pharmaceutical ingredients is an important characteristic in determining biological performance and ease of formulation during drug development, with high solubility being preferred (Klein, S. 2010, The AAPS Journal, 12, 397-406; Di, L., et al 2012, Drug Disc. Today, 17. 486-495). A test sample of crystalline solid (˜7 mg) was combined in a vial with 1 mL of the relevant buffer solution and the mixture vortexed to combine. If the solid dissolved completely, additional solid was added with vortexing until a saturated solution was obtained. The saturated solution/solid mixture was capped and subjected to temperature cycling as follows: 1 min at 25° C., 8 h at 40° C., 5 h at 15° C. and 12 h at 25° C. The mixture was filtered in a centrifugal filtration device (0.22 μm PVDF filter, MilliporeSigma, Milwaukee, Wis.) at 13,000 rpm and the concentration of the test compound in the filtrate was determined by HPLC/UPLC with reference to a three point standard curve. Phosphate buffered saline (PBS, pH 6.8, 50 mM phosphate buffer, 250 mM NaCl). Simulated gastric fluid (SGN pH 1.2, USP recipe). Fasted state simulated intestinal fluid (FaSSIF, 3 mM sodium taurocholate, 0.75 mM phospholipid from soybean lecithin, 50 mM phosphate buffer, ionic strength adjusted to 250 mM with NaCl, pH 6.8) and fed state simulated intestinal fluid (FeSSIF, 15 mM sodium taurocholate, 3.75 mM phospholipid from soybean lecithin, 144 mM acetic acid, 50 mM phosphate buffer, ionic strength adjusted to 250 mM with NaCl, pH 6.8).

[2] = test system: Western diet fed Sprague-Dawley rats; test: Rat western diet model: in vivo effects on plasma and hepatic triglyceride levels; conditions: compared with chow-fed vehicle animals
Description: The rat western diet model was utilized to assess the effects of DGAT2 inhibitor treatment on plasma triglyceride production and hepatic triglyceride content in vivo. Male Sprague-Dawley rats were housed under standard laboratory conditions on a 12-hour light, 12-hour dark cycle (lights on at 06:00). Two weeks prior to study start animals were placed on a high-fat, high sucrose, high-cholesterol diet (D12079b, provided by Research Diets, New Brunswick, N.J.). This diet provides ˜43% of kilocalories from carbohydrate and ˜41% of kilocalories from fat. Example 4 was administered orally as a solution (10 mL/kg dosing volume) in 0.5% methylcellulose in deionized water, pH 7.0-7.5 (methylcellulose was obtained from Sigma-Aldrich, St. Louis, Mo.). […] Plasma TG levels were determined using a Roche Hitachi Chemistry analyzer according to the manufacturer's instructions (Roche Diagnostics Corporation, Indianapolis, Ind.) and data was analyzed using GraphPad Prism (GraphPad Software, Inc., La Jolla, Calif.). […] The triglyceride assay was performed through absorbance and reported as milligrams per deciliter. […]
FIG. 4 plots the multiple dose effects of Example 4 on Plasma Triglyceride in Western Diet Fed Sprague-Dawley Rats where plasma triglyceride levels were determined from blood drawn from the lateral tail vein 2-hours following the final dose of Example 4. […]

[3] = target: DGAT2 in human hepatocytes (Homo sapiens (Human), UniProt Q96PD7); test: Determination of IC50 values for DGAT2 inhibitors in human hepatocytes; assay type: cell-based; conditions: cryopreserved human hepatocytes, DGAT1 inhibitor present; geometric mean
Sequence of DGAT2 in human hepatocytes (Q96PD7 whole entry): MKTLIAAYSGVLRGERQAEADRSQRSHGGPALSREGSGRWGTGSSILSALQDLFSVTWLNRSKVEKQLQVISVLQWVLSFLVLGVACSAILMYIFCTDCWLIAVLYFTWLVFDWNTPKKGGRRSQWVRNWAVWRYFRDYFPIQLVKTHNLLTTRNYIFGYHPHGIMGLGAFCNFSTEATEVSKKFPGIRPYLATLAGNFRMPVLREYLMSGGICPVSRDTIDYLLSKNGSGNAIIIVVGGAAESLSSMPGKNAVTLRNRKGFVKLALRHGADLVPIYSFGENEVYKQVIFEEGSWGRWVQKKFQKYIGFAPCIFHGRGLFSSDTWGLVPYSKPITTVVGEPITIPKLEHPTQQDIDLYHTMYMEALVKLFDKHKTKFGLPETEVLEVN
Procedure: For evaluation of the effects of DGAT2 inhibitors in a cell-based setting, cryopreserved human hepatocytes (Lot DOO, Celsis, Baltimore, Md.) were thawed and plated onto type I collagen-coated plates according to the manufacturer's instructions. After 18 hours overnight recovery period, the cells were overlayed with media containing 250 μg/mL Geltrex Basement Membrane Matrix (Thermo Fisher). The following day, media was aspirated and replaced with serum-free Williams Media E (Thermo Fisher) containing 400 μM sodium dodecanoate (Sigma-Aldrich, St. Louis, Mo.) and 2 mM GlutaMAX (Thermo Fisher). […] DGAT2 inhibitors were then added to the desired final concentration. After a 15 minute preincubation, 0.2 μCi [^14C(U)]-glycerol (Perkin Elmer) was added to each well followed by a 3 hour incubation. At this point the media was removed, and the cells lysed via orbital shaking in isopropyl alcohol: tetrahydrofuran (9:1) for 15 minutes prior to centrifugation at 3000 rpm for 10 minutes. Radiolabeled lipids were resolved using a solvent system by thin layer chromatography with the solvent consisting of hexanes:diethyl ether:glacial acetic acid (75:23:2, v/v/v). […] The half maximal inhibitory concentrations (IC50 values) were determined by nonlinear regression analysis of the % inhibition dose response curve using GraphPad Prism (GraphPad Software, Inc., La Jolla, Calif.). […]

[4] = High throughput determination of intrinsic clearance in human hepatocytes; assay type: in vitro ADME; conditions: human, pooled cryopreserved human hepatocytes (10 donors), high throughput human hepatocyte assay; 0.5 million cells/mL, 1 μM test compound, 37° C.; mean +/− Std Dev; read-out: CLint (μL/min/10^6 cells) (+/− Std Dev)
Procedure: The incubation was carried out at 37° C. […] The samples were centrifuged (Eppendorf, Hauppauge, N.Y.) at 3000 rpm for 5 min at 4° C.

[5] = Determination of pKa (capillary electrophoresis, Analiza, Inc.); assay type: physicochemical; conditions: mean, read-out: Basic pKa (most basic pKa)
[6] = Intrinsic clearance in human liver microsomes; assay type: in vitro ADME; conditions: human, pooled human liver microsomes (50 donors), pH 7.4, human liver microsome assay; 1 μM test compound, 0.806 mg/mL protein, NADPH, pH 7.4, 37° C.; mean +/− STD Dev; read-out: CLint (μL/min/mg) (+/− STD Dev)
Procedure: The incubations were conducted at 37° C. […] (Sorvall RC 3C Plus, Thermo Scientific, Waltham, Mass.).

[7] = target: human DGAT2 (hDGAT2) (Homo sapiens (Human), UniProt Q96PD7); test: In vitro DGAT2 assay, determination of IC50 values for DGAT2 inhibitors; assay type: biochemical; conditions: hDGAT2 membrane fraction; geometric mean
Sequence of human DGAT2 (hDGAT2) (Q96PD7 whole entry): as above
Procedure: Recombinant baculovirus for the FLAG-tagged hDGAT2 was generated in SF9 insect cells using Bac-to-Bac baculovirus expression system (Invitrogen) according to the manufacturer's protocol. For the expression of hDGAT2, SF9 cells (20 L) grown in Sf900II media were infected with hDGAT2 baculovirus at a multiplicity of infection of 1 in a Wave Bioreactor System 20/50P wave bag (GE Healthcare). After 40 hours of infection, the cells were then harvested by centrifugation at 5,000×g. The cell pellets were washed by resuspending in phosphate buffered saline (PBS) and collected by centrifugation at 5,000×g. The cell paste was flash frozen in liquid N2 and stored at −80° C. until needed. All operations below were at 4° C. unless otherwise noted. The cells were resuspended in lysis buffer (50 mM Tris-HCl, pH 8.0, 250 mM sucrose) including 1 mM ethylenediaminetetraacetic acid (EDTA) and the complete protease inhibitor cocktail (Roche Diagnostics) at a ratio of 3 mL buffer per 1 g cell paste. The cells were lysed by dounce homogenizer. The cell debris was removed by centrifugation at 1,000×g for 20 min, and the supernatant was centrifuged at 100,000×g for 1 hour. The resulting pellet was rinsed three times by filling ultracentrifuge tubes to the top with ice cold PBS before decanting. The washed pellet was resuspended with gentle stirring for 1 hour in lysis buffer containing 8 mM 3-[(3-cholamidopropyl)dimethylammonio]-1-propanesulfonate (CHAPS) at a ratio of 1 mL buffer per 1 g of original cell paste and centrifuged again at 100,000×g for 1 hour. The resulting supernatant was aliquotted, flash frozen in liquid N2, and stored at −80° C. until use.
To 1 μL of compounds dissolved in 100% DMSO and spotted at the bottom of each well, 5 μL of 0.04% bovine serum albumin (BSA) (fatty acid free, Sigma Aldrich) was added and the mixture was incubated at room temperature for 15 minutes. hDGAT2 membrane fractions were diluted in 100 mM Hepes-NaOH, pH 7.4, 20 mM MgCl2 containing 200 nM methyl arachidonyl fluorophosphonate (Cayman Chemical; dried from ethyl acetate stock solution under argon gas and dissolved in DMSO as 5 mM stock). 10 μL of this enzyme working solution was added to the plates and incubation continued for 2 hours at room temperature. […] Plates were centrifuged at 2,000×g for 1 minute in an Allegra 6R Centrifuge (Beckman Coulter) and then were sealed again with fresh covers before reading in a 1450 Microbeta Wallac Trilux Scintillation Counter (Perkin Elmer). DGAT2 activity was measured by quantifying the generated product [^14C]tridecanoylglycerol in the upper organic phase. […]

Row | Compound | Solubility [1] | circulating triglyceride response, resulting levels [2] | IC50 [3] | hepatocyte CLint at 1 μM [4] | pKa [5] | microsomal CLint at 1 μM [6] | IC50 [7]
1 | CCOc1cccnc1Oc1cncc(-c2ncc(C(=O)N[C@@H]3CNC[C@@H](F)C3)cn2)c1 [Example 4, 2-{5-[(3-Ethoxypyridin-2-yl)oxy]pyridin-3-yl}-N-[(3S,5S)-5-fluoropiperidin-3-yl]pyrimidine-5-carboxamide] | 0.58 mg/mL (≈ 1320 µM) | approached those of the chow-fed vehicle animals |  |  |  |  | 
2 | CCOc1cccnc1Oc1cncc(-c2ncc(C(=O)N[C@@H]3CNCC[C@@H]3F)cn2)c1 [Example 3, 2-{5-[(3-Ethoxypyridin-2-yl)oxy]pyridin-3-yl}-N-[(3R,4S)-4-fluoropiperidin-3-yl]pyrimidine-5-carboxamide, bis(trifluoroacetate) Salt] |  |  | 23 nM | < 1.9 µL/min/1e6 cells | 8.1 | < 7 µL/min/mg | 40 nM
